The supplement of paper PMC4862054

Legend:
Experiment in all cases: normalised response (% of control), CellTox Green; higher = less cell death (100 = DMSO, 0 = benzethonium chloride kill control)
Conditions in all cases: incubation time: 72 h
Hs578T = test system: Hs578T
How it was run: (§1)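 Each value is the plate-normalised signal at one concentration of the series. Breast cancer cell lines (20 µl suspension) were incubated 72 h in 384-well plates with compound at 5 concentrations in 10-fold steps over a compound-specific 10,000-fold range. CellTox Green and then CellTiter-Glo were read, and each plate was scaled to 0.1 % DMSO (100) and a positive kill control (0).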

BT-474 = test system: BT-474
How it was run: as §1

HCC1143 = test system: HCC1143
How it was run: as §1

CAL-51 = test system: CAL-51
How it was run: as §1

HCC1937 = test system: HCC1937
How it was run: as §1

MDA-MB-436 = test system: MDA-MB-436
How it was run: as §1

DU-4475 = test system: DU-4475
How it was run: as §1

MDA-MB-453 = test system: MDA-MB-453
How it was run: as §1

MDA-MB-468 = test system: MDA-MB-468
How it was run: as §1

CAL-120 = test system: CAL-120
How it was run: as §1

BT-549 = test system: BT-549
How it was run: as §1

MDA-MB-231 = test system: MDA-MB-231
How it was run: as §1

MCF-10A = test system: MCF-10A
How it was run: as §1

CAL-85-1 = test system: CAL-85-1
How it was run: as §1

HCC1599 = test system: HCC1599
How it was run: as §1

HDQ-P1 = test system: HDQ-P1
How it was run: as §1

CAL-148 = test system: CAL-148
How it was run: as §1

MFM-223 = test system: MFM-223
How it was run: as §1

Compound | normalised response (Hs578T) [%] | normalised response (BT-474) [%] | normalised response (HCC1143) [%] | normalised response (CAL-51) [%] | normalised response (HCC1937) [%] | normalised response (MDA-MB-436) [%] | normalised response (DU-4475) [%] | normalised response (MDA-MB-453) [%] | normalised response (MDA-MB-468) [%] | normalised response (CAL-120) [%] | normalised response (BT-549) [%] | normalised response (MDA-MB-231) [%] | normalised response (MCF-10A) [%] | normalised response (CAL-85-1) [%] | normalised response (HCC1599) [%] | normalised response (HDQ-P1) [%] | normalised response (CAL-148) [%] | normalised response (MFM-223) [%]
Cn1cnc2c(F)c(Nc3ccc(Br)cc3F)c(C(=O)NOCCO)cc21 [MEK-162] (1000 nM) | 121 | 101 | 94.5 | 89.1 | 54.6 | 79.9 | 68.7 | 95.4 | 120 | 93.1 | 97.4 | 39.1 | 106 | 79.3 | 94.4 | 67.1 | – | –
COc1ccc(C2=N[C@@H](c3ccc(Cl)cc3)[C@@H](c3ccc(Cl)cc3)N2C(=O)N2CCNC(=O)C2)c(OC(C)C)c1 [Nutlin-3] (10000 nM) | 115 | 97.6 | 105 | 41.2 | – | 95 | 91 | 92.3 | 107 | 98.2 | 105 | 108 | 101 | 80.3 | 101 | 103 | 43.8 | 96.4
COC1=CC(c2cc3ccccc3[nH]2)=N/C1=C\c1[nH]c(C)cc1C [Obatoclax] (1000 nM) | 107 | 97.3 | 105 | 100 | -5.92 | 91.5 | 98.1 | 105 | 107 | 90.5 | 113 | 64.3 | 70.1 | 101 | 100 | – | 105 | 102
CC(C)(C)c1cc(NC(=O)Nc2ccc(-c3cn4c(n3)sc3cc(OCCN5CCOCC5)ccc34)cc2)no1 [Quizartinib] (100 nM) | 113 | 100 | 98.3 | 117 | – | 66.7 | 101 | 101 | 139 | 99.7 | 132 | 116 | 84.8 | 107 | 106 | 103 | 106 | 102
CC(C)(C)c1cc(NC(=O)Nc2ccc(-c3cn4c(n3)sc3cc(OCCN5CCOCC5)ccc34)cc2)no1 [Quizartinib] (1000 nM) | – | 101 | 132 | 111 | 96 | 71.8 | 102 | 112 | 174 | 103 | 127 | 124 | 93.3 | 62.5 | 105 | 90.1 | 103 | 59.1
O=C(c1ccc(OCCN2CCCCC2)cc1)c1c(-c2ccc(O)cc2)sc2cc(O)ccc12 [Raloxifene] (1000 nM) | 105 | 97 | 119 | 121 | 119 | 107 | 104 | 103 | 120 | 104 | 106 | 103 | 104 | 98.6 | 102 | 105 | 92 | –
O=C(c1ccc(OCCN2CCCCC2)cc1)c1c(-c2ccc(O)cc2)sc2cc(O)ccc12 [Raloxifene] (10000 nM) | – | 95.4 | 118 | 108 | 82.8 | 104 | 99.6 | 99.2 | 82.7 | – | 101 | 62.7 | 82.2 | 63.3 | 58.4 | 50.4 | 103 | 102
Cn1c(=O)c(F)c(Nc2ccc(I)cc2F)c2c(=O)n(C[C@@H](O)CO)cnc21 [TAK-733] (100 nM) | – | 103 | 124 | 80.9 | 108 | 104 | 74 | 112 | 127 | 97 | 89.6 | 71.3 | 79.7 | 89 | 104 | 97.3 | 105 | 74.9
CCS(=O)(=O)c1cccc(-c2cc(C(=O)NC3CCN(C)CC3)c(C)c3[nH]c4ncc(C)cc4c23)c1 [TAK-901] (100 nM) | 76.4 | 101 | 118 | 53.8 | 91.5 | 96.8 | 100 | 107 | -31.9 | 102 | 116 | 92.3 | 107 | 97.9 | 99.7 | – | 42 | 94
CCCC(CCC)C(=O)O [Valproic acid] (10000 nM) | 100 | 85 | 94.8 | 95.7 | 76 | 117 | 104 | 107 | 86.2 | 106 | 117 | – | 107 | 111 | 93.2 | – | 102 | 101
